“Also recorded” adds a separate entry of the source.
Assays:
[1] = tested on: PDGF-stimulated Erk1, Erk2, Akt and STAT3 phosphorylation; assay: PDGF-stimulated phosphorylation of Erk1/2, Akt and STAT3 in NIH 3T3 cells; format: cell-based, mouse; conditions: GFB204 10 μM
Procedure: (§1) FIGS. 3A and 3B show the effect of GFB204 on growth factor stimulated Erk1, Erk2, Akt, and STAT3 phosphorylation. GFB204 inhibits VEGF and PDGF stimulation of Flk-1 tyrosine phosphorylation and Erk1/Erk2 phosphorylation (FIG. 3A). NIH 3T3 cells or Flk-1/NIH 3T3 cells were treated with increasing concentrations of GFB204 for 5 minutes prior to stimulation with PDGFBB (10 ng/ml) or VEGF (50 ng/ml), respectively, for 10 minutes. The cells were then lysed and processed for SDS-PAGE Western blotting with an antibody specific for phosphotyrosine-Flk-1 or anti-phosphotyrosine for PDGFR tyrosine phosphorylation or phospho-Erk1/2. GFB204 effects on growth factor-stimulated Erk1, Erk2, Akt and STAT3 phosphorylation (FIG. 3B). NIH 3T3, Flk-1/NIH 3T3, IGF-1R/NIH 3T3 or EGFR/NIH 3T3 cells were treated with GFB204 (10 μM) prior to stimulation with PDGF (NIH 3T3) VEGF (Flk-1/NIH 3T3), EGF (EGFR/NIH 3T3), bFGF (NIH 3T3) or IGF-1 (IGF-1R/NIH 3T3). The cells were then harvested and processed for SDS-PAGE Western blotting with antibodies specific for phospho-Erk1/2, phospho-Akt and phospho-STAT3.
(§2) Growth factor-mediated stimulation of phosphorylation of Erk1/2, Akt and STAT3. […]

[2] = tested on: EGF-stimulated Erk1, Erk2, Akt and STAT3 phosphorylation; assay: EGF-stimulated phosphorylation of Erk1/2, Akt and STAT3 in EGFR/NIH 3T3 cells; format: cell-based, mouse; conditions: GFB204 10 μM
Procedure: as §1, §2

[3] = tested on: bFGF-stimulated Erk1, Erk2, Akt and STAT3 phosphorylation; assay: bFGF-stimulated phosphorylation of Erk1/2, Akt and STAT3 in NIH 3T3 cells; format: cell-based, mouse; conditions: GFB204 10 μM
Procedure: as §1, §2

[4] = tested on: IGF-1-stimulated Erk1, Erk2, Akt and STAT3 phosphorylation; assay: IGF-1-stimulated phosphorylation of Erk1/2, Akt and STAT3 in IGF-1R/NIH 3T3 cells; format: cell-based, mouse; conditions: GFB204 10 μM
Procedure: as §1, §2

[5] = tested on: adult human brain endothelial cells; assay: VEGF-dependent human brain endothelial cell migration (modified Boyden chamber); format: cell-based; conditions: VEGF 20 ng/ml, 18 hours, read-out: IC50 VEGF-induced endothelial cell migration
Procedure: Migration of adult human brain endothelial cells was evaluated using a modified Boyden chamber assay as described in Materials and Methods. Vehicle control (FIG. 5A) or GFB204 (FIG. 5B) was added to 2% FBS-containing medium in the outer chamber, and the number of migrated cells to the VEGF-containing lower chamber was determined after an 18-hour incubation (FIG. 5C).
Human brain endothelial cell migration assay. Migration of adult human brain endothelial cells was evaluated using a modified Boyden chamber assay (BD BioCoat Matrigel Invasion Chamber) (Papadimitriou, E. et al. Biochem Biophys Res Commun, 2001, 282:306-13). The cells were plated at 4×10^4/ml onto an 8 μm pore size membrane coated with a thin layer of Matrigel basement membrane matrix. GFB204 was added to the medium in the outer chamber and the cells were cultured for 18 hours under VEGF-dependent condition in the lower chamber (VEGF 20 ng/ml). Non-invading cells were removed from the upper surface with a cotton swab. Membrane inserts were then fixed with 4% paraformaldehyde and stained with Crystal-Violet dye. The number of cells that migrated to the undersurface of the filters, was quantified by counting the cells migrated in randomly selected microscopic fields (10×). Samples were analyzed for significant differences using a Student's t-test for independent samples.

A-549 xenografts = assay: Antitumor activity in the nude mouse A-549 tumor xenograft model; format: in vivo, nude mice; conditions: for average tumor size: 3 weeks
Procedure: FIG. 6 illustrates that GFB204 inhibits A-549 xenografts growth in nude mice (FIG. 6). A-549 cells were implanted into the flanks of nude mice and when the tumors reached an average size of about 100 mm^3, the mice were randomized and treated either with vehicle (♦) or GFB204 at 1 mg/kg (▪) and 5 mg/kg (●), and tumor sizes measured as described under Materials and Methods. Tumors were processed two hours after the last i.p. injection for CD31 IHC staining as described under Materials and Methods.
Antitumor activity in the nude mouse tumor xenograft model. Nude mice (Charles River, Wilmington, Mass.) were maintained in accordance with the Institutional Animal Care and Use Committee (IACUC) procedures and guidelines. A-549 cells were harvested and resuspended in PBS, then injected s.c. into the right and left flanks (10×10^6 cells per flank) of 8 week old female nude mice as reported previously (Sun, J. et al. Cancer Res, 1999, 59:4919-26). When tumors reached about 100 mm^3, animals were dosed i.p. with 0.2 ml solution once daily. Control animals received a vehicle whereas treated animals were injected with GFB204 (1 or 5 mg/kg/day). The tumor volumes were determined by measuring the length (l) and the width (w) and calculating the volume (V=lw^2/2) as described previously (Sun, J. et al. Cancer Res, 1999, 59:4919-26). Statistical significance between control and treated animals were evaluated using Student's t-test.

In the case of `CCCCOc1c2cc(C(=O)Nc3cc(C(=O)O)cc(C(=O)OCc4ccccc4)c3)cc1Cc1cc(C(=O)Nc3cc(C(=O)O)cc(C(=O)OCc4ccccc4)c3)cc(c1OCCCC)Cc1cc(C(=O)Nc3cc(C(=O)O)cc(C(=O)OCc4ccccc4)c3)cc(c1OCCCC)Cc1cc(C(=O)Nc3cc(C(=O)O)cc(C(=O)OCc4ccccc4)c3)cc(c1OCCCC)C2` [GFB204], the “PDGF-stimulation of the phosphorylation of Erk1, Erk2, Akt and STAT3” value [1] is reported as “blocked; also recorded: inhibited”, the “EGF-stimulation of the phosphorylation of Erk1, Erk2, Akt and STAT3” value [2] is reported as “had little effect and not” and the “bFGF-stimulation of the phosphorylation of Erk1, Erk2, Akt and STAT3” value [3] is reported as “had little effect and not”. The “IGF-1-stimulation of the phosphorylation of Erk1, Erk2, Akt and STAT3” value [4] was “had little effect and not”, the IC50 [5] was 600 nM and the average tumor size (A-549 xenografts; 1 mg/kg i.p. once daily) was 650±114 mm^3. For the same compound, the tumor growth inhibition (A-549 xenografts; 1 mg/kg, not statistically significant) was 15%, the average tumor size (A-549 xenografts; 5 mg/kg i.p. once daily) was 284±108 mm^3 and the tumor growth inhibition (A-549 xenografts; 5 mg/kg, statistically significant (p<0.05)) was 73%.
